The values below come from patent EP4140481A1, “PROTEIN-OLIGOMER BINDING AGENTS AND THERAPEUTIC USES THEREOF” (Galyan Bio, Inc., priority 2021, dated 2023).

Structures are written as SMILES. ≈ marks a conversion by molar mass, not a printed value. Where “and” joins values, the source holds several entries; their conditions need not be identical. Equal entries are not always repeated.

A short description of one data set: Thermodynamic solubility. It counts as physicochemical. The note with it: thermodynamic from solid.
A further data set in a line: Kinetic solubility. It counts as physicochemical. The conditions noted are these: kinetic from dmso stock.
A further data set in a line: Log D. The note with it: pH 7.4; pH 7,4. It counts as physicochemical.
The next data set concerns the target T1, mHTT (Homo sapiens, UniProt P42858).
T1 construct: host or cells: ST HDH Q111/111 mouse striatal cell line (knock-in locus)
Kind of data set: mHTT levels in striatal cells (immunocytochemistry). The data set is classed as cell-based, mouse. The note with it: for mHTT after 3 h heat shock and following 48 hours of compound treatment in comparison to untreated STHdh 111/111 / remaining activity at 10 µM: STHdh 111/111; for remaining activity at 10 µM: 3 hours heat shock, 48 hours treatment, percentage in comparison to untreated STHdh 111/111, 3B5H10 antibody, read-out: mHTT after treatment.

The next data set has as its target T2, wildtype huntingtin (Mus musculus, UniProt P42859).
T2 construct: host or cells: ST HDH Q7/7 mouse striatal cell line
The data set can be described thus: Wildtype huntingtin levels (immunofluorescence). The conditions noted are these: STHdh 7/7 in comparison to non-treated STHdh 7/7. It counts as cell-based.

For a further data set, the target named is Exon1 Q46 (Homo sapiens, UniProt P42858, INS38QQQQQQQQQQQQQQQQQQQQQQQQQ). The data set can be described thus: Circular dichroism study. It counts as binding. As for the experimental part:
Protein samples were diluted with buffer to 7.5 µM prior to Circular Dichroism (CD) measurements. Measurements were conducted at room temperature.
Four spectra at each measurement were taken every 1 nm from 200 to 260 nm, scanning at 50 nm/min with an averaging time of 1 sec. Spectra were obtained from samples in 20 mM phosphate, pH 7.4. Ten scans were averaged for each sample spectrum
Single-wavelength readings at 222 nm were obtained. After subtraction of the Trx contribution, the α-helical content of Httex1 was estimated from its mean residue ellipticity (MREHttex1) at 222 nm. This calculation was conducted as described by Bravo-Arredondo (Bravo-Arredondo, J.M. et al., J Biol Chem. 2018 Dec 21;293(51):19613-19623).
MRE Exon-1 Q16 and Q46 (Mean Residue Ellipticity) was measured every 1 sec for 300 sec; the 301 readings for each sample were averaged and MRE Trx subtracted. The number of amino acids in each sample to experience a change in helicity was estimated using a previously developed helix-coil transition model, which gave the change in fraction of helicity (ΔfHelix) by the following equation: fHelix = (MREHttex1 −MRECoil)/(MREHelix −MRECoil) [formula] where MRE Exon1 Q26 or Q46 (MREHttex1 in the formula) describes the helix-coil transition, obtained from the difference between MRE Eon1 Q26 or Q46 at 222 nm of the fusion protein at the given temperature (in our case 37 °C) and the product of MRE Trx at 222 nm at the same temperature and the fraction of residues comprised by Trx in that particular construct, and MRECoil = 2220−53T,MREHelix =; (−44,000+250T)(1−(3)/(Nr)) [formula] given T as the temperature in °C and Nr as the number of residues.
In order to calculate an equilibrium of the two states model, percent α-helicity was calculated using the relation of MREHttex1 = 0 and -34700 (deg cm^2 dmol^-1) for 0% and 100% helicity, respectively. Table 14: Comparison between Kd, reversal of conformational changes of Exon1 Q46 and reduction of mHTT in comparison to untreated striatal neurons
The CD measurements protocol for Compound 101 was the same as outlined above except that from 206 nm - 210 nm and 220 nm - 224 nm, the step size was 0.2 nm, and the bandwidth was 1nm.

Exon1 Q46, sequence (P42858 with tags, fused parts or gaps with the stated changes): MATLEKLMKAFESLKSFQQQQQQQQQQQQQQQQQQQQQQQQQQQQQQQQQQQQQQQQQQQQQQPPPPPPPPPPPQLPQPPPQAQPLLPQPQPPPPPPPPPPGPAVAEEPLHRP
T1 sequence (P42858 with tags, fused parts or gaps with the stated changes): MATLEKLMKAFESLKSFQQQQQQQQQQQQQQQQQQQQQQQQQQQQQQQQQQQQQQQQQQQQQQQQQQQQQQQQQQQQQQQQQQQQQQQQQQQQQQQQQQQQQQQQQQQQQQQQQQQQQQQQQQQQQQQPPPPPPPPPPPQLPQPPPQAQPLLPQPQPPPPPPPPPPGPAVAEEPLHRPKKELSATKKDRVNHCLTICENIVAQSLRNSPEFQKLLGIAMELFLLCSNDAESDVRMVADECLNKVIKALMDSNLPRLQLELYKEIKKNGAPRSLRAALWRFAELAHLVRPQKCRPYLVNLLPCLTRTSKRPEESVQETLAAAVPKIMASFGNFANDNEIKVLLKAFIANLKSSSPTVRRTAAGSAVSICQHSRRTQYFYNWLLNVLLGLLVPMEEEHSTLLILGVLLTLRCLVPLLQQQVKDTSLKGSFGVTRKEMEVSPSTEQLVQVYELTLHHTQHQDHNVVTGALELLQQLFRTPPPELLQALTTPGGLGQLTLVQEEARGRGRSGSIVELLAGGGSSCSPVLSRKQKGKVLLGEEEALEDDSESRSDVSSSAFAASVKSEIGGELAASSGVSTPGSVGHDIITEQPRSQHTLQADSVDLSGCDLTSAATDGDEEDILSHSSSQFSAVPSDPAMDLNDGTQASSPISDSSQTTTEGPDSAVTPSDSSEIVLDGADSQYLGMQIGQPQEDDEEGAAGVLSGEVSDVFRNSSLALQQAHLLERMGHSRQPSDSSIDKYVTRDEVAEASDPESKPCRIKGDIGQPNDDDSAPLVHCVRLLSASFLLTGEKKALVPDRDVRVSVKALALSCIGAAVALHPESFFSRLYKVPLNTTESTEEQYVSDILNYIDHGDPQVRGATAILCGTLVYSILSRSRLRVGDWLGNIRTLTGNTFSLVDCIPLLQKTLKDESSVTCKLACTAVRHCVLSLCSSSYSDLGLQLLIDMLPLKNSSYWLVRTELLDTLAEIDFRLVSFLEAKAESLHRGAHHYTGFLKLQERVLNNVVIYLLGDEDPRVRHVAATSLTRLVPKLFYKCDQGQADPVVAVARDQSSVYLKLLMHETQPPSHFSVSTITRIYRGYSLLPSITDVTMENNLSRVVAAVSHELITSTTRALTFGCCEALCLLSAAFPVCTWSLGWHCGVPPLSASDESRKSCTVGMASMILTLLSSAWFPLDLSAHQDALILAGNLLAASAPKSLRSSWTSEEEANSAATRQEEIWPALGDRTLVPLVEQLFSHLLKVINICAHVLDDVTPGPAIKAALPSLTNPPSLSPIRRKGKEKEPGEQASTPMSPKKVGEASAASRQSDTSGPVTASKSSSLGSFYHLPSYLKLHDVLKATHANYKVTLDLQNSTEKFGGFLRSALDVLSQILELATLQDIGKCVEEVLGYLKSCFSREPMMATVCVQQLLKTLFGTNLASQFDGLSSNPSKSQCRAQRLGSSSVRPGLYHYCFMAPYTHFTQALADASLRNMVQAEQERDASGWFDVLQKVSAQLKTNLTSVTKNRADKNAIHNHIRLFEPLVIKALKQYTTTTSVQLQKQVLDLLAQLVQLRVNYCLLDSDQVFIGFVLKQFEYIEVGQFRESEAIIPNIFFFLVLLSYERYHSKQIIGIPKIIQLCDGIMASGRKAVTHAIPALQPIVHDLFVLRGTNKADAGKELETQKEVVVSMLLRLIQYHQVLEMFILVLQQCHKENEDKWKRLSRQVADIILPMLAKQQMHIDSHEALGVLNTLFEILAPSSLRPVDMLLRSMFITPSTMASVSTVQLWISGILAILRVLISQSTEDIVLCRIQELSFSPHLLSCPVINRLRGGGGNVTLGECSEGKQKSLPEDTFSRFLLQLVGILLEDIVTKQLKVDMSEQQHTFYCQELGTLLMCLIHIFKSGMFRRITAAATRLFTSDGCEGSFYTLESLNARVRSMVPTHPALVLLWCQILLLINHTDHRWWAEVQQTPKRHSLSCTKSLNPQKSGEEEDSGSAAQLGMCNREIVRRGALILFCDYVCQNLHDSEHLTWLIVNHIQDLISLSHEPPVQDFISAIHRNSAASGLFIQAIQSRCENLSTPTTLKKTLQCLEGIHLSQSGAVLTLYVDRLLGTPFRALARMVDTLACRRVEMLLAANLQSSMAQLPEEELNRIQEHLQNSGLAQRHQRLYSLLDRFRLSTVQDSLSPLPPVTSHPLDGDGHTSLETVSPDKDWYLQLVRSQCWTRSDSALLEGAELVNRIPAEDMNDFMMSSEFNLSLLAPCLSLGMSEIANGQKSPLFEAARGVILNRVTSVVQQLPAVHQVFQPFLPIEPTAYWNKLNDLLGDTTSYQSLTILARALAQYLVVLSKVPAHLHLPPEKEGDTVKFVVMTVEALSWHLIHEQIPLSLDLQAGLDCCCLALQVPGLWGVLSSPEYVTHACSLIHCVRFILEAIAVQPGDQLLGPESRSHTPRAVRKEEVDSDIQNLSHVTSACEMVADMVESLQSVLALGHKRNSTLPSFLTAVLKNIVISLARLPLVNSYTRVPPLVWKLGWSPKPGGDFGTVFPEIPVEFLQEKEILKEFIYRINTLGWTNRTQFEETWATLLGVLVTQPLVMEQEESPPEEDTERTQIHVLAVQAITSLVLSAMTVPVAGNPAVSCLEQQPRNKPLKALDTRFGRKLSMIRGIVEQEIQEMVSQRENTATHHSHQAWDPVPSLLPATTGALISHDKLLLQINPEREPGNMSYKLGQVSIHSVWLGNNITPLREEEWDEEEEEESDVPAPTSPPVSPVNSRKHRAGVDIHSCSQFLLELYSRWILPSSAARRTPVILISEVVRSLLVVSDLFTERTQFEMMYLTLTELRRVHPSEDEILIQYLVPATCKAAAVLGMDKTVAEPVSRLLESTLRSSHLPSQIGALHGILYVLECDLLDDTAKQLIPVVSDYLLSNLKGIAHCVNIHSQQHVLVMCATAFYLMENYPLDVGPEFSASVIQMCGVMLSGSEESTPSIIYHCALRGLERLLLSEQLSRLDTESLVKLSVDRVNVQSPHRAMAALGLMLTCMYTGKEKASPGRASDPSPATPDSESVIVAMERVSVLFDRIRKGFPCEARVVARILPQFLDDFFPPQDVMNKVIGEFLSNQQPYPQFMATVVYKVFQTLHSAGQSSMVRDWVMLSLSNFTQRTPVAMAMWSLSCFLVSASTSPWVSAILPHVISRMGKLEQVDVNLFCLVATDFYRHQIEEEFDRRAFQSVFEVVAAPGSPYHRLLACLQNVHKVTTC

`CCc1c(C)[nH]c2ccc(C(=O)NCCN(CC)CC)cc12` [Compound 4, N-(2-(diethylamino)ethyl)-3-ethyl-2-methyl-1H-indole-5-carboxamide]: in “Thermodynamic solubility”, the solubility (thermodynamic) (usually solubility found after equilibrating the solid with the medium) was 5100 µM (≈ 1540 µg/mL). Also, the kinetic solubility (as a rule, the concentration staying in solution when a stock, usually in DMSO, is diluted into the medium) in “Kinetic solubility” was determined as 328 µM (≈ 98.9 µg/mL). In “Log D”, the logD (in general, lipophilicity at a set pH, counting ionised and neutral species) came out at 2.02. On mHTT, the “mHTT after 3 h heat shock and following 48 hours of compound treatment in comparison to untreated STHdh 111/111” value is reported as 34%. Besides, the remaining activity at 10 µM on mHTT is 34%. Besides, the “Diffuse mHTT reduction” value at mHTT (STHdh 111/111 in comparison to untreated cells, p < 0.0001) is 68%. Besides, the wildtype huntingtin level result at wildtype huntingtin was “not reduced”. Further, the Kd at Exon1 Q46 (Exon1 Q46) and on Exon1 Q46 (Exon1 Q46 protein) was 60 nM each time. For the same compound, the “Fraction Helix fH” value on Exon1 Q46 (Exon1 Q46, conc. Compound 0.01 µM) was found to be 22.4%; on Exon1 Q46 (Exon1 Q46, conc. Compound 0.059 µM), 20.9%; on Exon1 Q46 (Exon1 Q46, conc. Compound 0.158 µM), 21.1%; on Exon1 Q46 (Exon1 Q46, conc. Compound 0.647 µM), 20.0%; on Exon1 Q46 (Exon1 Q46, conc. Compound 1.62 µM), 19.5%; at Exon1 Q46 (Exon1 Q46, conc. Compound 4.04 µM), 19.3%. For the same compound, the “Fraction Helix fH” value at Exon1 Q46 (Exon1 Q46, conc. Compound 13.68 µM) was 18.3%; on Exon1 Q46 (Exon1 Q46, conc. Compound 37.77 µM), 18.1%.

The compound `Cc1[nH]c2ccc(C(=O)NCCN(C(C)C)C(C)C)cc2c1C` [Compound 22] yielded a solubility (thermodynamic) in “Thermodynamic solubility” of 2100 µM (≈ 662 µg/mL). In the data set “Kinetic solubility”, the kinetic solubility is 188 µM (≈ 59.3 µg/mL). In addition, in “Log D”, the logD is 1.21. The “mHTT after 3 h heat shock and following 48 hours of compound treatment in comparison to untreated STHdh 111/111” value on mHTT came to 46%. Besides, the remaining activity at 10 µM at mHTT is 46%. In addition, the “mHTT lowering with autophagy inhibitor” value on mHTT (STHdh 111/111 exposed to 10 mM NH4Cl) is “blocked the mHTT lowering effects of Compound 22 completely”. Also, at mHTT (STHdh 111/111 in comparison to untreated cells, p = 0.02), the “Nuclear diffuse mHTT reduction” value is listed as 32%. In addition, the wildtype huntingtin level result at wildtype huntingtin is reported as “not reduced”. Also, the “proportion of a predominantly α-helical state of Exon1 Q46 after treatment” value at Exon1 Q46 (2 µM) is 21.4%. Moreover, the “Reduction of the proportion of a predominantly α-helical state to wildtype levels” value on Exon1 Q46 (2 µM compound exposure) was 36.7% and 36.6%. The Kd (usually a measure of binding affinity in units of concentration) at Exon1 Q46 (Exon1 Q46) was determined as 700 nM; at Exon1 Q46 (Exon1 Q46 protein), 701 nM.
